From PMC8375220 (Peptides, 2021)
Where two headings read alike, the source gives them in different places. Where no end group is shown, it is not given here.

Tests used:
[1] = tested on: SARS-CoV-2 spike pseudovirions
[2] = tested on: Human umbilical vein endothelial cells (HUVECs); assay: HUVEC viability; type: cell-based
SARS-CoV-2 spike RBD = SARS-CoV-2 spike RBD (Severe acute respiratory syndrome coronavirus 2, UniProt P0DTC2); assay: biochemical; type: binding
BALB/c mice = assay: In vivo toxicity after intranasal administration; set-up: species or system mouse; conditions: 2.5 mg/kg single intranasal dose
[3] = tested on: SARS-CoV-2 spike pseudovirion; conditions: cited from earlier work

In the case of ACE2, the “IC50, inhibition of SARS-CoV-2 spike pseudovirion infection” value [1] is reported as 0.067 µg/mL.

In the case of GKGDFRI [GK-7, GKGDFRI], the HUVEC survival ([2]; 24 h, doses up to 200 μg/mL, CCK-8) is reported as “did not affect cell survival”, the “fold of highest non-cytotoxic dose (200 μg/mL) over pseudovirion IC50” value ([2]; HUVECs 24 h versus IC50 2.96 μg/mL) is reported as “approximately 68 fold” and the Kd (SARS-CoV-2 spike RBD) is reported as 25.1 nM. The “IC50, inhibition of SARS-CoV-2 spike pseudovirion infection” value ([1]; spike pseudovirions, 12 h) was 2.96 µg/mL, the “effect on ALT, AST, blood urea and creatinine contents” value (BALB/c mice) was “minor effects” and the “HE staining of major organs” value (BALB/c mice; day 7) was “no pathological changes”. For the same substance, the “effect on RBC, WBC and platelet counts in the blood” value (BALB/c mice; day 7) was “minor effects” and the “effect on organ index (heart, liver, spleen, lungs, kidneys)” value (BALB/c mice; day 7) was “minor effects”.

For LL37, the “IC50, SARS-CoV-2 spike pseudovirion infection” value [3] is given as 4.74 µg/mL.
